Target: human F508del-CFTR (Homo sapiens, UniProt P13569, DEL508-508)
Test: F508del-CFTR cell surface expression (corrector activity), DiscoveRx ß-galactosidase complementation chemiluminescence assay in recombinant U2OS cell line;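 also: U2OS cells co-expressing ProLink-tagged F508del-CFTR and a membrane-anchored enzyme acceptor, where more surface CFTR restores β-galactosidase activity measured by chemiluminescence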
Settings: for EC50: EC50, F508del-CFTR cell surface expression
[1] = U2OS cell line, 16h compound incubation, geomean values
[2] = U2OS, in relation to the Emax of the corrector lumacaftor (=100%), U2OS cell line, 16h compound incubation, arithmetic mean values
[3] = U2OS cells, 16h compound incubation, geomean values
[4] = U2OS, in relation to Emax of corrector lumacaftor (=100%), arithmetic mean values

Sequence of human F508del-CFTR (P13569 with tags, fused parts or gaps DEL508-508): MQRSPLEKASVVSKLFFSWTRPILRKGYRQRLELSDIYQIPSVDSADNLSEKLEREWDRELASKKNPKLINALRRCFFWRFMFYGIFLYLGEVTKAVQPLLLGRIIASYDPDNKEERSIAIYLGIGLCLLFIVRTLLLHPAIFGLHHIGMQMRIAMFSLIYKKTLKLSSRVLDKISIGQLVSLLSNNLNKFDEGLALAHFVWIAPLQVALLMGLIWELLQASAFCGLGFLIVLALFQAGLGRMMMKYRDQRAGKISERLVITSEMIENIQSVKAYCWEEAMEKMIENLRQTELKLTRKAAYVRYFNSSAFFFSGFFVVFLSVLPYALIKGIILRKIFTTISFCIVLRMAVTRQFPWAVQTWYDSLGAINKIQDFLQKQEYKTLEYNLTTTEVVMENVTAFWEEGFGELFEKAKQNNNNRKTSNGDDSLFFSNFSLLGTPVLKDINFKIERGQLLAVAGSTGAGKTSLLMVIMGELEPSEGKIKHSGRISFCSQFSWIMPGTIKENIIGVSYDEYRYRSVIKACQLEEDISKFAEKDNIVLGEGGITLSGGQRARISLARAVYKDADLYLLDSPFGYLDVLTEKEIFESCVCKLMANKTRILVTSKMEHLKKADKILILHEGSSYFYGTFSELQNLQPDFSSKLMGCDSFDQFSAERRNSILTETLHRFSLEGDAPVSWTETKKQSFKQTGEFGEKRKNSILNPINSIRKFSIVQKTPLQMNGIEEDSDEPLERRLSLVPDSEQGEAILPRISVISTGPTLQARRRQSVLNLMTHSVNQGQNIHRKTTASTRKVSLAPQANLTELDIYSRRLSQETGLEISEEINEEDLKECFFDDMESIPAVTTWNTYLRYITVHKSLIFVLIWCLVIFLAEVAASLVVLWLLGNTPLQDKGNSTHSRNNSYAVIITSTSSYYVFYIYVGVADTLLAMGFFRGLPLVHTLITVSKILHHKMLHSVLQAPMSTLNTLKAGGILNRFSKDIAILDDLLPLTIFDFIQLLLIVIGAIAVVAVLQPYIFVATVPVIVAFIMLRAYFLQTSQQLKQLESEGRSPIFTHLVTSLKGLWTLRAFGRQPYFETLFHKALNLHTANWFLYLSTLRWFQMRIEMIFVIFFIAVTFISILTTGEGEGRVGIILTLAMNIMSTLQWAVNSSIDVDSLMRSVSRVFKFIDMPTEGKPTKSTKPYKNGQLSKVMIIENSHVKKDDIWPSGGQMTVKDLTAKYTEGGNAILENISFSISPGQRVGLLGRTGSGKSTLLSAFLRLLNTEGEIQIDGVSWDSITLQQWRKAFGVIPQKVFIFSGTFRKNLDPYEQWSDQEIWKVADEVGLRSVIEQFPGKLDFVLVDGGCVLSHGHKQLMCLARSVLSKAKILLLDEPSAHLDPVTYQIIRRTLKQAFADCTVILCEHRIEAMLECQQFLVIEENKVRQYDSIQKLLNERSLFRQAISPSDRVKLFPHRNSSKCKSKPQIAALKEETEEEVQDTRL

| Structure (SMILES) | EC50 [1] [nM] | Emax [2] [%] | other results |
| --- | --- | --- | --- |
| COc1cccc2c1C(=O)N[C@H](C(=O)NCCc1ccccc1F)CC(=O)N(C)[C@@H](CC(C)C)C(=O)N(CCC1CCCCC1)CC(=O)N[C@H](Cc1ccccc1)CO2 [Example 204, (3R,9S,13S)-3-benzyl-7-(2-cyclohexylethyl)-N-(2-fluorophenethyl)-9-isobutyl-16-methoxy-10-methyl-5,8,11,15-tetraoxo-2,3,4,5,6,7,8,9,10,11,12,13,14,15-tetradecahydrobenzo[p][1]oxa[4,7,10,14]tetraazacycloheptadecine-13-carboxamide] | 198 | 173 | – |
| CCOc1cccc(CCNC(=O)[C@@H]2CC(=O)N(C)[C@@H](CC(C)C)C(=O)N(CCC3CCCCC3)CC(=O)N[C@H](Cc3ccccc3)COc3cccc(OC)c3C(=O)N2)c1 [Example 201, (3R,9S,13S)-3-benzyl-7-(2-cyclohexylethyl)-N-(3-ethoxyphenethyl)-9-isobutyl-16-methoxy-10-methyl-5,8,11,15-tetraoxo-2,3,4,5,6,7,8,9,10,11,12,13,14,15-tetradecahydrobenzo[p][1]oxa[4,7,10,14]tetraazacycloheptadecine-13-carboxamide] | 222 | 109 | – |
| CC(C)C[C@H]1C(=O)N2CC[C@H](c3ccccc3)C[C@@H]2C(=O)N[C@H](Cc2ccccc2)COc2cnc3ccccc3c2C(=O)N[C@H](C(=O)NCCc2cc(C3CC3)no2)CC(=O)N1C [Example 677, (9S,13S,19aR,22R)-22-benzyl-N-(2-(3-cyclopropylisoxazol-5-yl)ethyl)-13-isobutyl-12-methyl-7,11,14,20-tetraoxo-18-phenyl-7,8,9,10,11,12,13,14,17,18,19,19a,20,21,22,23-hexadecahydro-16H-pyrido[2′,1′:6,7][1]oxa[4,7,10,14]tetraazacycloheptadecino[17,16-c]quinoline-9-carboxamide] | – | – | EC50 [3]: 37 nM; Emax [4]: 283% |
| C#Cc1cccc(CCNC(=O)[C@@H]2CC(=O)N(C)[C@@H](CC(C)C)C(=O)N3CCCC[C@@H]3C(=O)N[C@H](Cc3ccccc3)COc3ccnc(OC)c3C(=O)N2)c1 [Example 189, (7S,11S,17aR,20R)-20-benzyl-N-(3-ethynylphenethyl)-11-isobutyl-4-methoxy-10-methyl-5,9,12,18-tetraoxo-5,6,7,8,9,10,11,12,15,16,17,17a,18,19,20,21-hexadecahydro-14H-dipyrido[2,1-f:3′,4′-p][1]oxa[4,7,10,14]tetraazacycloheptadecine-7-carboxamide] | 453 | 270 | – |
| COc1cccc2c1C(=O)N[C@H](C(=O)NCCc1cc(C)no1)CC(=O)N(C)[C@@H](CC(C)C)C(=O)N(CCC1CCCCC1)CC(=O)N[C@H](Cc1ccccc1)CO2 [Example 214, (3R,9S,13S)-3-benzyl-7-(2-cyclohexylethyl)-9-isobutyl-16-methoxy-10-methyl-N-(2-(3-methylisoxazol-5-yl)ethyl)-5,8,11,15-tetraoxo-2,3,4,5,6,7,8,9,10,11,12,13,14,15-tetradecahydrobenzo[p][1]oxa[4,7,10,14]tetraazacycloheptadecine-13-carboxamide] | 292 | 221 | – |
| Cc1cc2c(c3cccnc13)C(=O)N[C@H](C(=O)NCCc1nc(C3CC3)no1)CC(=O)N(C)[C@@H](CC(C)C)C(=O)N(C)[C@H](Cc1nc(C(F)(F)F)no1)C(=O)N[C@H](Cc1ccccc1)CO2 [Example 936, (3S,7S,10R,13R)-13-benzyl-N-(2-(3-cyclopropyl-1,2,4-oxadiazol-5-yl)ethyl)-7-isobutyl-6,9,17-trimethyl-1,5,8,11-tetraoxo-10-((3-(trifluoromethyl)-1,2,4-oxadiazol-5-yl)methyl)-1,2,3,4,5,6,7,8,9,10,11,12,13,14-tetradecahydro-[1]oxa[4,7,10,14]tetraazacycloheptadecino[16,17-f]quinoline-3-carboxamide] | – | – | EC50 (U2OS cells, 16h compound incubation, geomean of several measurements): 26 nM; Emax (U2OS, in relation to the Emax of the corrector lumacaftor (=100%), U2OS cells, 16h compound incubation, arithmetic mean): 469% |
| COc1cc(CCNC(=O)[C@@H]2CC(=O)N(C)[C@@H](CC(C)C)C(=O)N3CCN(C(C)C)C[C@@H]3C(=O)N[C@H](Cc3ccccc3)COc3ccc4ccccc4c3C(=O)N2)cc(OC)c1 [Example 618, (4aR,7R,18S,22S)-7-benzyl-N-(3,5-dimethoxyphenethyl)-22-isobutyl-3-isopropyl-21-methyl-5,16,20,23-tetraoxo-2,3,4,4a,5,6,7,8,16,17,18,19,20,21,22,23-hexadecahydro-1H-naphtho[1,2-p]pyrazino[2,1-f][1]oxa[4,7,10,14]tetraazacycloheptadecine-18-carboxamide] | – | – | EC50 [3]: 80 nM; Emax [4]: 309% |
| CCc1nc(CCNC(=O)[C@@H]2CC(=O)N(C)[C@@H](CC(C)C)C(=O)N3CCCC[C@@H]3C(=O)N[C@H](Cc3ccccc3)COc3cnc4ccccc4c3C(=O)N2)no1 [Example 79, (9S,13S,19aR,22R)-22-benzyl-N-(2-(5-ethyl-1,2,4-oxadiazol-3-yl)ethyl)-13-isobutyl-12-methyl-7,11,14,20-tetraoxo-7,8,9,10,11,12,13,14,17,18,19,19a,20,21,22,23-hexadecahydro-16H-pyrido[2′,1′:6,7][1]oxa[4,7,10,14]tetraazacycloheptadecino[17,16-c]quinoline-9-carboxamide] | 327 | 296 | – |
| COc1cccc2c1C(=O)N[C@H](C(=O)NCCc1ccc3c(c1)OCCCO3)CC(=O)N(C)[C@@H](CC(C)C)C(=O)N(CCC1CCCCC1)CC(=O)N[C@H](Cc1ccccc1)CO2 (racemic) [Example 12, (3R,9S,13RS)-3-benzyl-7-(2-cyclohexylethyl)-N-(2-(3,4-dihydro-2H-benzo[b][1,4]dioxepin-7-yl)ethyl)-9-isobutyl-16-methoxy-10-methyl-5,8,11,15-tetraoxo-2,3,4,5,6,7,8,9,10,11,12,13,14,15-tetradecahydrobenzo[p][1]oxa[4,7,10,14]tetraazacycloheptadecine-13-carboxamide] | – | 184 | – |
| COc1cccc(CCNC(=O)[C@@H]2CC(=O)N(C)[C@@H](CC3CCCC3)C(=O)N(C[C@@H]3CCCCO3)CC(=O)N[C@H](Cc3ccccc3)COc3ccc4ccccc4c3C(=O)N2)c1 (racemic) [Example 293, (3RS,7S,13R)-13-benzyl-7-(cyclopentylmethyl)-N-(3-methoxyphenethyl)-6-methyl-1,5,8,11-tetraoxo-9-(((S)-tetrahydro-2H-pyran-2-yl)methyl)-1,2,3,4,5,6,7,8,9,10,11,12,13,14-tetradecahydronaphtho[1,2-p][1]oxa[4,7,10,14]tetraazacycloheptadecine-3-carboxamide] | – | – | Emax (in relation to the Emax of the corrector lumacaftor (=100%), U2OS cell line, 16h compound incubation, arithmetic mean values): 137% |
| CC(C)C[C@H]1C(=O)N2CCCC[C@@H]2C(=O)N[C@H](Cc2ccccc2)COc2cnc3ccccc3c2C(=O)N[C@H](C(=O)NCCc2ccns2)CC(=O)N1C [Example 103, (9S,13S,19aR,22R)-22-benzyl-13-isobutyl-N-(2-(isothiazol-5-yl)ethyl)-12-methyl-7,11,14,20-tetraoxo-7,8,9,10,11,12,13,14,17,18,19,19a,20,21,22,23-hexadecahydro-16H-pyrido[2′,1′:6,7][1]oxa[4,7,10,14]tetraazacycloheptadecino[17,16-c]quinoline-9-carboxamide] | 499 | 256 | – |
